For series [1], the target named is T1, FXR (Homo sapiens, UniProt Q96RI1).
T1 construct: GST-LBD
T1 sequence (Q96RI1 262-486 limits assumed): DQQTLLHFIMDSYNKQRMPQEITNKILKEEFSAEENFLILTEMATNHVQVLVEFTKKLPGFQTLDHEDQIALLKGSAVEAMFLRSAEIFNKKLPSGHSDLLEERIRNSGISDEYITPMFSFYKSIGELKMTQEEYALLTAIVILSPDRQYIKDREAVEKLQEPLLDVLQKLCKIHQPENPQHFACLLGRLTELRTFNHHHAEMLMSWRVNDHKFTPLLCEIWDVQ
The series can be described thus: AlphaScreen nuclear receptor panel, FXR. The class given is biochemical. The source says: (§1) Ligand binding activity of GA (1) was explored via AlphaScreen technology over a panel of NRs that, along with hPXR (Figure 1A), included major human endocrine and metabolic receptors, such as the retinoid X receptor (RXR), constitutive androstane receptor (CAR), farnesoid X receptor (FXR), vitamin D receptor (VDR), liver X receptor (LXR) forms α and β, and the PPAR isoforms α, δ, and γ (see Figure S1). GA (1) was compared to its analogue δ-tocotrienol (5), the vitamers 3 and 4, their short-chain metabolites (SCMs) α-CEHC (10) and γ-CEHC (11), and the LCMs 2 and 8 (Chart 1). The test was performed in the presence of reference standard agonists for the different NRs.
(§2) The activity of nuclear receptors was determined using AlphaScreen technology, a recruitment coactivator assay previously described.[56]
(§3) (A) The test was carried out at 10 μM compound final concentration. Ligand binding to nuclear receptors was expressed as luminescence units. […] Vehicle was assessed to obtain a measure of background signal (basal evaluation). […] In presence of the ligand, the nuclear receptor LBD undergoes conformational changes, binds to the coactivator and the chemical energy is transferred from donor to acceptor beads in order to produce a signal, i.e. luminescence; in this case the compounds behaves as agonist, changing the conformation of the receptor to recruit the coactivator. […]
(Bead proximity is the source of the signal in Alpha formats.)

Series [2] concerns the target T2, hPXR ligand binding domain (LBD) (Homo sapiens, UniProt O75469).
T2 construct: made in house; host or cells: E. coli BL21-Gold
T2 sequence (O75469 146-433 limits assumed): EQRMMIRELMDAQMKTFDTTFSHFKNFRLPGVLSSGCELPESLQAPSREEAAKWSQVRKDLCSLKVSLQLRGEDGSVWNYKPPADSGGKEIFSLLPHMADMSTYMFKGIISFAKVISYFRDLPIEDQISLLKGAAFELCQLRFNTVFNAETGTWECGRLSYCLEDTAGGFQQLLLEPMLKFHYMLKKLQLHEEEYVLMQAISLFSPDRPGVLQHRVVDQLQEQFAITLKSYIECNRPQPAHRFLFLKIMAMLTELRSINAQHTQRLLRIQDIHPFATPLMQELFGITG
Briefly: Isothermal titration calorimetry, binding to His-tagged hPXR LBD. The note with it: ITC, 37 °C, pH 7.5. From the text: To obtain direct proof of interaction with the hPXR ligand binding domain (LBD), we performed an isothermic titration calorimetry (ITC) experiment using His-tagged hPXR LBD protein in solution (Figure 1C). ITC measures the affinity, Ka, the Gibbs energy (ΔG = −RT ln Ka), and the changes in enthalpy, ΔH, and entropy, ΔS, associated with the binding of the FKK compounds (ΔG = −RT ln K = ΔH – TΔS). Enthalpic and entropic contributions to binding affinity define the nature of the forces that drive the binding reaction.[40],[41]
ITC was performed using a VP-ITC microcalorimeter from MicroCal/Malvern Instruments (Northampton, MA). The protein and the ligands (in DMSO, 8% vol/vol final concentration) were prepared in 25 mM Hepes, pH 7.5 with 150 mM NaCl. In all of the experiments, the ligand solution was injected in 10-μL aliquots into the calorimetric cell containing PXR-LBD [3 μM] at 37 °C. The respective concentrations of GA (1), 2, and 5 in the syringe were 60 μM each. The heat evolved upon each injection of the ligands was obtained from the integral of the calorimetric signal. The heat associated with binding to PXR-LBD in the cell was obtained by subtracting the heat of dilution from the heat of reaction.
For orientation: Isothermal titration calorimetry measures the heat released or taken up as one component is titrated into another.

Series [3] has as its system RXR. Briefly: AlphaScreen nuclear receptor panel, RXR. The class given is biochemical, human.
Text: as §1, §2, §3

Series [4] concerns C57BL/6 wild-type male mice. Briefly: Acute toxicity in mice after single oral bolus. The conditions noted are these: 100 mg single bolus by oral gavage, 24 h after the treatment.
The target of series [5] is T3, CAR (Homo sapiens, UniProt Q14994).
T3 construct: GST-LBD
T3 sequence (Q14994 109-352 limits assumed): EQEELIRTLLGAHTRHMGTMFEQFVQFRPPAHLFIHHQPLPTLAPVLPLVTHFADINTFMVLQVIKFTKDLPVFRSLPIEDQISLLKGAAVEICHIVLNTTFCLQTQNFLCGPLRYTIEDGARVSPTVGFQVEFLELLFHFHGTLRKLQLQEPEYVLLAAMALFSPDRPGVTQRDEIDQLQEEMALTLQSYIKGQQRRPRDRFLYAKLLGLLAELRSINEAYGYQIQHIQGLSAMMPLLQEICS
The series can be described thus: AlphaScreen nuclear receptor panel, CAR. The series is classed as biochemical.
Text: as §1, §2, §3

The subject of series [6] is PPARs. The series can be described thus: AlphaScreen nuclear receptor panel, PPARs. The series is classed as biochemical, human.
Text: as §1, §2, §3

Series [7] relates to PXR. Briefly: PXR, CYP3A4 (CYP3A11) expression in mouse liver and intestine after single bolus. The class given is in vivo. The conditions noted are these: 24 h post-treatment.
The subject of series [8] is RAR. The series can be described thus: AlphaScreen nuclear receptor panel, RAR. The series is classed as biochemical, human.
Text: as §1, §2, §3

In series [9] the target is T4, LXRβ receptor (Homo sapiens, UniProt P55055).
T4 construct: GST-LBD
T4 sequence (P55055 222-460 limits assumed): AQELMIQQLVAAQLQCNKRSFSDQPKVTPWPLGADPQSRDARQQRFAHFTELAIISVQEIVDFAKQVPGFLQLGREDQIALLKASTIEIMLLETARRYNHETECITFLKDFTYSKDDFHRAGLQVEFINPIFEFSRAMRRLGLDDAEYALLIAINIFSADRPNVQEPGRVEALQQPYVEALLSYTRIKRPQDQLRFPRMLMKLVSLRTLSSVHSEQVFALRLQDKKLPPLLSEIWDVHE
The series can be described thus: AlphaScreen nuclear receptor panel, LXRβ. The series is classed as biochemical.
Text: as §1, §2, §3

Regarding `C/C(=C\CC/C(C)=C/CC[C@]1(C)CCc2cc(O)cc(C)c2O1)CC/C=C(\C)C(=O)O` [GA (1), (2E,6E,10E)-13-[(2R)-6-hydroxy-2,8-dimethyl-chroman-2-yl]-2,6,10-trimethyltrideca-2,6,10-trienoic acid], the “Response on FXR” value in series [1] is recorded as “No response”. In [2], the “N (stoichiometry)” value is reported as 0.9, the ΔG is reported as -8.8 kcal/mol, the ΔH is reported as -6.4 kcal/mol and the “−TΔS” value is -2.4 kcal/mol. In series [2] (listed as 1), this molecule had a ΔG of -8.8 kcal/mol and a ΔH of -6.4 kcal/mol. In series [3], the “Response on RXR” value is “No response”. The molecule also yielded a Mortality in [4] of 100%. Also, the “Effect on CAR (constitutive activation)” value in series [5] is recorded as “partially inhibited”. In addition, in [6], the “Response on PPARs” value is recorded as “No response”. Also, in series [7] (5 to 25 mg single bolus), the “CYP3A4 (CYP3A11 in mice) protein expression in liver and intestine” value is recorded as “increased”. Besides, in [7] (mice, 5 to 25 mg single bolus), the “PXR mRNA in intestine” value is recorded as “increased”; the “PXR protein and mRNA in liver tissue” value is reported as “dose-dependent stimulation effect”. Moreover, the “PXR protein expression in intestine” value in series [7] (mice, single bolus) is “not sufficient to significantly increase PXR protein expression”. For the same molecule, the “Response on RAR” value in series [8] is listed as “No response”. The “Agonist activity at LXRβ” value in series [9] was “low activity”.

For the origin of these results see PMC7901650, “Garcinoic Acid Is a Natural and Selective Agonist of Pregnane X Receptor” (Journal of Medicinal Chemistry, 2020).
